molecular target: T1, Mammalian DNA-PK, isolated from Hela cell nuclear extract (Homo sapiens, UniProt P78527); assay: DNA-PK inhibition assay (33P-ATP, filter binding); type: biochemical; conditions: not given
T1 construct: Mammalian DNA-PK, isolated from Hela cell nuclear extract; endogenous in cells; host or cells: HeLa cell nuclear extract (purified per Gell and Jackson 1999)
Procedure: In order to assess the inhibitory action of the compounds against DNA-PK in vitro, the following assay was used to determine IC50 values.
The total assay volume per well was 40 μl.
After 10 minutes of incubation at 30° C. the reactions were initiated by the addition of Na-ATP (50 μM final), ^33p-γATP and a 30mer double stranded DNA oligonucleotide (10 ng/μl) in a volume of 10 μl. Designated positive and negative reaction wells were done in combination with compound wells (unknowns) in order to calculate % enzyme activities. The plates were then shaken for 2 minutes and incubated at 30° C. for 45 minutes.
Following the incubation, the reactions were quenched by the addition of 50 μl 30% acetic acid to each well. The plates were then shaken for 5 minutes and the contents of each plate (80 μl from each well) transferred over to a 96 well Polyfiltronics filtration plate, containing P81-phosphocellulose membrane (TRADE MARK)(Whatman, UK). The solutions were vacuum pumped through the membrane and each well membrane washed four times using 300 μl of 15% acetic acid. The well membranes were then air dried and 20 μl of scintillant was added to each well.
The plates were transferred to a TopCount NXT (TRADE MARK) (Packard, UK) for scintillation counting. Values recorded are counts per minute (cpm) following a 1 minute counting time for each well.
The enzyme activity for each compound is then calculated using the following equation: […]
These are determined over a range of different concentrations, normally from 10 μM down to 0.01 μM. Such IC50 values are used as comparative values to identify increased compound potencies.

SMILES	IC50
O=C(NC1CN2CCC1CC2)c1ccc(-c2cc(=O)cc(N3CCOCC3)o2)cc1 (centres unmarked) [Compound 206]	< 1000 nM

same assay, conditions: IC50 of less than about 1 μM and/or % inhibition of more than about 50 at 1 μM; read-out: DNA-PK inhibition IC50 (particular efficacy)

IC50	SMILES
< 1000 nM	O=c1cc(-c2ccc3c(c2)OCCO3)oc(N2CCOCC2)c1 [Compound 60]
< 1000 nM	O=c1cc(-c2cccc3ccsc23)oc(N2CCOCC2)c1 [Compound 72]
< 1000 nM	O=C(NC1CC1)c1cccc(-c2cc(=O)cc(N3CCOCC3)o2)c1 [Compound 74]
< 1000 nM	CN(C)c1ccc(CNC(=O)c2cccc(-c3cc(=O)cc(N4CCOCC4)o3)c2)cc1 [Compound 105]
< 1000 nM	O=C(NC1CCC(O)CC1)c1cccc(-c2cc(=O)cc(N3CCOCC3)o2)c1 (centres unmarked) [Compound 114]
< 1000 nM	COCCCNC(=O)c1cccc(-c2cc(=O)cc(N3CCOCC3)o2)c1 [Compound 125]
< 1000 nM	O=C(NCCOc1ccccc1)c1cccc(-c2cc(=O)cc(N3CCOCC3)o2)c1 [Compound 126]
< 1000 nM	O=C(NCc1cccs1)c1cccc(-c2cc(=O)cc(N3CCOCC3)o2)c1 [Compound 131]
< 1000 nM	O=C(c1cccc(-c2cc(=O)cc(N3CCOCC3)o2)c1)N1CCCC(CO)C1 (centres unmarked) [Compound 140]
< 1000 nM	O=C(c1cccc(-c2cc(=O)cc(N3CCOCC3)o2)c1)N1CCN(C/C=C/c2ccccc2)CC1 [Compound 143]
< 1000 nM	O=C(NN1CCOCC1)c1cccc(-c2cc(=O)cc(N3CCOCC3)o2)c1 [Compound 146]
< 1000 nM	Cc1ccccc1CNC(=O)c1ccc(-c2cc(=O)cc(N3CCOCC3)o2)cc1 [Compound 163]
< 1000 nM	O=C(c1ccc(-c2cc(=O)cc(N3CCOCC3)o2)cc1)N(Cc1ccccc1)Cc1ccccc1 [Compound 166]
< 1000 nM	COc1ccc(CCNC(=O)c2ccc(-c3cc(=O)cc(N4CCOCC4)o3)cc2)cc1 [Compound 167]
< 1000 nM	O=C(NCc1cccc(F)c1)c1ccc(-c2cc(=O)cc(N3CCOCC3)o2)cc1 [Compound 169]
< 1000 nM	O=C(NCCCc1ccccc1)c1ccc(-c2cc(=O)cc(N3CCOCC3)o2)cc1 [Compound 170]
< 1000 nM	O=C(NCc1cccc(C(F)(F)F)c1)c1ccc(-c2cc(=O)cc(N3CCOCC3)o2)cc1 [Compound 178]
< 1000 nM	O=C(NCc1cc(F)cc(C(F)(F)F)c1)c1ccc(-c2cc(=O)cc(N3CCOCC3)o2)cc1 [Compound 179]

IC50	SMILES
< 1000 nM	Nc1cccc(CNC(=O)c2ccc(-c3cc(=O)cc(N4CCOCC4)o3)cc2)c1 [Compound 182]
< 1000 nM	O=C(NCCSCc1c(F)cccc1Cl)c1ccc(-c2cc(=O)cc(N3CCOCC3)o2)cc1 [Compound 187]
< 1000 nM	CSCCC(CO)NC(=O)c1ccc(-c2cc(=O)cc(N3CCOCC3)o2)cc1 (centres unmarked) [Compound 192]
< 1000 nM	CC(C)(C)OC(=O)CNC(=O)c1ccc(-c2cc(=O)cc(N3CCOCC3)o2)cc1 [Compound 194]
< 1000 nM	O=C(NCCCNC(=O)c1ccc(-c2cc(=O)cc(N3CCOCC3)o2)cc1)OCc1ccccc1 [Compound 203]
< 1000 nM	O=C(NC1CCN(Cc2ccccc2)CC1)c1ccc(-c2cc(=O)cc(N3CCOCC3)o2)cc1 [Compound 205]
< 1000 nM	O=C(NCc1ccco1)c1ccc(-c2cc(=O)cc(N3CCOCC3)o2)cc1 [Compound 211]
< 1000 nM	O=C(NCc1ccccn1)c1ccc(-c2cc(=O)cc(N3CCOCC3)o2)cc1 [Compound 214]
< 1000 nM	O=c1cc(-c2ccc(CNCc3cccc(F)c3)cc2)oc(N2CCOCC2)c1 [Compound 249]
< 1000 nM	COc1cccc(CNCc2ccc(-c3cc(=O)cc(N4CCOCC4)o3)cc2)c1OC [Compound 253]
< 1000 nM	Nc1ccccc1CNCc1ccc(-c2cc(=O)cc(N3CCOCC3)o2)cc1 [Compound 255]
< 1000 nM	CC(=O)OC(C)C(=O)Nc1ccc(-c2cc(=O)cc(N3CCOCC3)o2)cc1 (centres unmarked) [Compound 267]
< 1000 nM	CC(O)C(=O)Nc1ccc(-c2cc(=O)cc(N3CCOCC3)o2)cc1 (centres unmarked) [Compound 268]
< 1000 nM	O=C(CSc1ccccc1)Nc1ccc(-c2cc(=O)cc(N3CCOCC3)o2)cc1 [Compound 270]
< 1000 nM	O=C(Cc1cccs1)Nc1ccc(-c2cc(=O)cc(N3CCOCC3)o2)cc1 [Compound 271]
< 1000 nM	COC(=O)c1ccc(COc2ccc3c(=O)cc(N4CCOCC4)oc3c2)cc1 [Compound 339, Methyl 4-(2-(morpholin-4-yl)-4-oxo-4H-chromen-7-yloxymethyl)-benzoate]
< 1000 nM	O=c1cc(N2CCOCC2)oc2cc(OCc3cccc(Cl)c3)ccc12 [Compound 341, 7-(3-Chlorobenzyloxy)-2-(morpholin-4-yl)-chromen-4-one]

Second part, the molecule before the results:

SMILES	IC50
O=c1cc(-c2ccc3c(c2)CCO3)oc(N2CCOCC2)c1 [Compound 59]	< 1000 nM
N#CCNC(=O)c1cccc(-c2cc(=O)cc(N3CCOCC3)o2)c1 [Compound 73]	< 1000 nM
O=C(NCc1cccc(C(F)(F)F)c1)c1cccc(-c2cc(=O)cc(N3CCOCC3)o2)c1 [Compound 99]	< 1000 nM
Nc1cccc(CNC(=O)c2cccc(-c3cc(=O)cc(N4CCOCC4)o3)c2)c1 [Compound 104]	< 1000 nM
CN(C)CCN(Cc1ccccc1)C(=O)c1cccc(-c2cc(=O)cc(N3CCOCC3)o2)c1 [Compound 106]	< 1000 nM
NCc1cccc(CNC(=O)c2cccc(-c3cc(=O)cc(N4CCOCC4)o3)c2)c1 [Compound 107]	< 1000 nM
CCN(CC)CCCNC(=O)c1cccc(-c2cc(=O)cc(N3CCOCC3)o2)c1 [Compound 118]	< 1000 nM
O=C(CNC(=O)c1cccc(-c2cc(=O)cc(N3CCOCC3)o2)c1)c1cccc([N+](=O)[O-])c1 [Compound 123]	< 1000 nM
COCCNC(=O)c1cccc(-c2cc(=O)cc(N3CCOCC3)o2)c1 [Compound 127]	< 1000 nM
O=C(c1cccc(-c2cc(=O)cc(N3CCOCC3)o2)c1)N1CCOCC1 [Compound 139]	< 1000 nM
CC(CNC(=O)c1ccc(-c2cc(=O)cc(N3CCOCC3)o2)cc1)c1ccc(Cl)cc1 (centres unmarked) [Compound 173]	< 1000 nM
O=C(NCc1ccc(OC(F)(F)F)cc1)c1ccc(-c2cc(=O)cc(N3CCOCC3)o2)cc1 [Compound 175]	< 1000 nM
O=C(NCc1cc(C(F)(F)F)cc(C(F)(F)F)c1)c1ccc(-c2cc(=O)cc(N3CCOCC3)o2)cc1 [Compound 176]	< 1000 nM
O=C(NC(CO)CO)c1ccc(-c2cc(=O)cc(N3CCOCC3)o2)cc1 [Compound 190]	< 1000 nM
COCC(Cc1ccccc1)NC(=O)c1ccc(-c2cc(=O)cc(N3CCOCC3)o2)cc1 (centres unmarked) [Compound 200]	< 1000 nM
O=C(NCCOc1ccccc1)c1ccc(-c2cc(=O)cc(N3CCOCC3)o2)cc1 [Compound 202]	< 1000 nM
CCOC(=O)C1CCCN(C(=O)c2ccc(-c3cc(=O)cc(N4CCOCC4)o3)cc2)C1 (centres unmarked) [Compound 215]	< 1000 nM
COC(=O)C(NCc1ccc(-c2cc(=O)cc(N3CCOCC3)o2)cc1)c1ccccc1 (centres unmarked) [Compound 247]	< 1000 nM
O=c1cc(-c2ccc(CNCc3ccc(OC(F)(F)F)cc3)cc2)oc(N2CCOCC2)c1 [Compound 252]	< 1000 nM
O=c1cc(-c2ccc(CN3Cc4cccc5cccc(c45)C3)cc2)oc(N2CCOCC2)c1 [Compound 258]	< 1000 nM
O=c1cc(-c2ccc(CN3CCc4ccccc4C3)cc2)oc(N2CCOCC2)c1 [Compound 260]	< 1000 nM
CCOC(=O)CC(=O)Nc1ccc(-c2cc(=O)cc(N3CCOCC3)o2)cc1 [Compound 269]	< 1000 nM
O=C(Nc1ccc(-c2cc(=O)cc(N3CCOCC3)o2)cc1)C1CCCN1C(=O)C(F)(F)F (centres unmarked) [Compound 279]	< 1000 nM
O=c1cc(N2CCC(CO)CC2)oc2c1ccc1ccccc12 [Compound 318, 2-(4-Hydroxymethyl-piperidin-1-yl)-benzo[h]chromen-4-one]	< 1000 nM
N#Cc1ccc(COc2ccc3c(=O)cc(N4CCOCC4)oc3c2)cc1 [Compound 338, 7-(4-cyano-benzyloxy)-2-morpholin-4-yl-chromen-4-one]	< 1000 nM
COC(=O)c1cccc(COc2ccc3c(=O)cc(N4CCOCC4)oc3c2)c1 [Compound 340, Methyl 3-(2-(morpholin-4-yl)-4-oxo-4H-chromen-7-yloxymethyl)-benzoate]	< 1000 nM

same assay, conditions: concentration at which 50% of the enzyme activity is inhibited; read-out: DNA-PK Inhibition IC50

IC50	SMILES
10000 nM	O=c1cc(N2CCCC2)oc2c1ccc1ccccc12 [Compound 312, 2-pyrrolidin-1-yl-benzo[h]chromen-4-one]
650 nM	O=c1cc(N2CCOCC2)oc2cc(OCc3cccc(Cl)c3)ccc12 [Compound 341, 7-(3-Chlorobenzyloxy)-2-(morpholin-4-yl)-chromen-4-one]

The remaining lines, values behind:

SMILES	IC50
O=c1cc(N2CCSC2)oc2c1ccc1ccccc12 [Compound 330, 2-(Thiazolidin-3-yl)-benzo[h]chromen-4-one]	20000 nM
N#Cc1ccc(COc2ccc3c(=O)cc(N4CCOCC4)oc3c2)cc1 [Compound 338, 7-(4-cyano-benzyloxy)-2-morpholin-4-yl-chromen-4-one]	950 nM
Cc1cccc(COc2ccc3c(=O)cc(N4CCOCC4)oc3c2)c1 [Compound 342, 7-(3-Methylbenzyloxy)-2-(morpholin-4-yl)-chromen-4-one]	800 nM

same assay, conditions: read-out: DNA-PK Inhibition IC50

SMILES	IC50
O=c1cc(N2CC[C@H](O)C2)nc2c3ccccc3ccn12 [Compound 12, 2-((S)-3-Hydroxy-pyrrolin-1-yl)-pyrimido[2,1-a]isoquinolin-4-one]	10500 nM
